# Values quoted from earlier work in US11524087B2, “Microwave assisted methods and systems for surface decontamination” (priority 2019, dated 2022).
smiles,measurement,setting,value
"[O][Cl+][O-] [CD, chlorine dioxide]",short term exposure limit (STEL),15-minute,0.25 ppm
same,immediately damaging to life and health (IDLH) level,NIOSH,5 ppm
same,permissible exposure limit (PEL),OSHA,0.1 ppm
